# Tests used:
# Assay in all cases: fitness (endpoint OD595 vs no drug) (fraction); higher = more growth
# [1] = tested on: S. aureus Newman
# Procedure, shortened: (§1)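 Growth medium was TSB, LB Lennox or CY, and plates were kept at 37 °C. Inoculation was at OD595 0.01 in 384-well plates, at 30 µl per well or 55 µl for S. pneumoniae. OD595 was monitored every 30 min for 14 h and background-subtracted using the first reading. Fitness is the optical density on entering stationary phase divided by the robust mean of no-drug controls, with values capped at 1.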
# [2] = tested on: S. aureus DSM 20231
# Procedure, shortened: as §1
# [3] = tested on: B. subtilis 168
# Procedure, shortened: as §1
# [4] = first compound 0.375 µg/mL, partner 85.5 µg/mL
# [5] = first compound 0.375 µg/mL, partner 171 µg/mL
# [6] = first compound 0.375 µg/mL, partner 342 µg/mL
# [7] = first compound 0.75 µg/mL, partner 85.5 µg/mL
# [8] = first compound 0.75 µg/mL, partner 171 µg/mL
# [9] = first compound 0.75 µg/mL, partner 342 µg/mL
# [10] = first compound 1.5 µg/mL, partner 85.5 µg/mL
# [11] = first compound 1.5 µg/mL, partner 171 µg/mL
# [12] = first compound 1.5 µg/mL, partner 342 µg/mL
# [13] = first compound 0.375 µg/mL, partner 0.0156 µg/mL
# [14] = first compound 0.375 µg/mL, partner 0.0312 µg/mL
# [15] = first compound 0.375 µg/mL, partner 0.0625 µg/mL
# [16] = first compound 0.75 µg/mL, partner 0.0156 µg/mL
# [17] = first compound 0.75 µg/mL, partner 0.0312 µg/mL
# [18] = first compound 0.75 µg/mL, partner 0.0625 µg/mL
# [19] = first compound 1.5 µg/mL, partner 0.0156 µg/mL
# [20] = first compound 1.5 µg/mL, partner 0.0312 µg/mL
# [21] = first compound 1.5 µg/mL, partner 0.0625 µg/mL
# [22] = first compound 0.375 µg/mL, partner 0.1875 µg/mL
# [23] = first compound 0.375 µg/mL, partner 0.375 µg/mL
# [24] = first compound 0.375 µg/mL, partner 0.75 µg/mL
# [25] = first compound 0.75 µg/mL, partner 0.1875 µg/mL
# [26] = first compound 0.75 µg/mL, partner 0.375 µg/mL
# [27] = first compound 0.75 µg/mL, partner 0.75 µg/mL
# [28] = first compound 1.5 µg/mL, partner 0.1875 µg/mL
# [29] = first compound 1.5 µg/mL, partner 0.375 µg/mL
# [30] = first compound 1.5 µg/mL, partner 0.75 µg/mL
# 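Note: OD595 on entry to stationary phase over no-drug wells; at most 1.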
structure (smiles),measurement,setting,value
N[C@@H]1CONC1=O [Cycloserine D] + CCN(CC)CCOC(=O)c1ccc(N)cc1 [Procaine],fitness,[1]; [4],≥ 1
same,fitness,[1]; [5],0.993
same,fitness,[1]; [6],≥ 1
same,fitness,[1]; [7],≥ 1
same,fitness,[1]; [8],≥ 1
same,fitness,[1]; [9],≥ 1
same,fitness,[1]; [10],≥ 1
same,fitness,[1]; [11],≥ 1
same,fitness,[1]; [12],≥ 1
same,fitness,[2]; [4],0.979
same,fitness,[2]; [5],0.996
same,fitness,[2]; [6],≥ 1
same,fitness,[2]; [7],0.982
same,fitness,[2]; [8],0.998
same,fitness,[2]; [9],0.966
same,fitness,[2]; [10],0.981
same,fitness,[2]; [11],≥ 1
same,fitness,[2]; [12],≥ 1
same,fitness,"[3]; first compound 0.125 µg/mL, partner 85.5 µg/mL",0.95
same,fitness,"[3]; first compound 0.125 µg/mL, partner 171 µg/mL",0.908
same,fitness,"[3]; first compound 0.125 µg/mL, partner 342 µg/mL",0.925
same,fitness,"[3]; first compound 0.25 µg/mL, partner 85.5 µg/mL",0.899
same,fitness,"[3]; first compound 0.25 µg/mL, partner 171 µg/mL",0.851
same,fitness,"[3]; first compound 0.25 µg/mL, partner 342 µg/mL",0.874
same,fitness,"[3]; first compound 0.5 µg/mL, partner 85.5 µg/mL",0.921
same,fitness,"[3]; first compound 0.5 µg/mL, partner 171 µg/mL",0.894
same,fitness,"[3]; first compound 0.5 µg/mL, partner 342 µg/mL",0.907
N[C@@H]1CONC1=O [Cycloserine D] + Cc1onc(-c2ccccc2)c1C(=O)N[C@@H]1C(=O)N2[C@@H]1SC(C)(C)[C@@H]2C(=O)O [Oxacillin],fitness,[1]; [13],0.819
same,fitness,[1]; [14],0.716
same,fitness,[1]; [15],0.611
same,fitness,[1]; [16],0.779
same,fitness,[1]; [17],0.663
same,fitness,[1]; [18],0.611
same,fitness,[1]; [19],0.771
same,fitness,[1]; [20],0.642
same,fitness,[1]; [21],0.579
same,fitness,[2]; [13],0.878
same,fitness,[2]; [14],0.67
same,fitness,[2]; [15],0.506
same,fitness,[2]; [16],0.906
same,fitness,[2]; [17],0.712
same,fitness,[2]; [18],0.499
same,fitness,[2]; [19],0.931
same,fitness,[2]; [20],0.656
same,fitness,[2]; [21],0.494
same,fitness,"[3]; first compound 0.125 µg/mL, partner 0.002 µg/mL",0.973
same,fitness,"[3]; first compound 0.125 µg/mL, partner 0.004 µg/mL",0.966
same,fitness,"[3]; first compound 0.125 µg/mL, partner 0.0078 µg/mL, one replicate",0.99
same,fitness,"[3]; first compound 0.125 µg/mL, partner 0.008 µg/mL",0.936
same,fitness,"[3]; first compound 0.125 µg/mL, partner 0.0155 µg/mL, one replicate",0.909
same,fitness,"[3]; first compound 0.125 µg/mL, partner 0.031 µg/mL, one replicate",0.873
same,fitness,"[3]; first compound 0.125 µg/mL, partner 0.075 µg/mL, one replicate",0.526
same,fitness,"[3]; first compound 0.125 µg/mL, partner 0.15 µg/mL, one replicate",0.0465
same,fitness,"[3]; first compound 0.125 µg/mL, partner 0.3 µg/mL, one replicate",0.0536
same,fitness,"[3]; first compound 0.25 µg/mL, partner 0.002 µg/mL",0.926
same,fitness,"[3]; first compound 0.25 µg/mL, partner 0.004 µg/mL",0.887
same,fitness,"[3]; first compound 0.25 µg/mL, partner 0.0078 µg/mL, one replicate",0.937
same,fitness,"[3]; first compound 0.25 µg/mL, partner 0.008 µg/mL",0.892
same,fitness,"[3]; first compound 0.25 µg/mL, partner 0.0155 µg/mL, one replicate",0.966
same,fitness,"[3]; first compound 0.25 µg/mL, partner 0.031 µg/mL, one replicate",0.88
same,fitness,"[3]; first compound 0.25 µg/mL, partner 0.075 µg/mL, one replicate",0.596
same,fitness,"[3]; first compound 0.25 µg/mL, partner 0.15 µg/mL, one replicate",0.0158
same,fitness,"[3]; first compound 0.25 µg/mL, partner 0.3 µg/mL, one replicate",0.0367
same,fitness,"[3]; first compound 0.5 µg/mL, partner 0.002 µg/mL",0.906
same,fitness,"[3]; first compound 0.5 µg/mL, partner 0.004 µg/mL",0.9
same,fitness,"[3]; first compound 0.5 µg/mL, partner 0.0078 µg/mL, one replicate",0.973
same,fitness,"[3]; first compound 0.5 µg/mL, partner 0.008 µg/mL",0.907
same,fitness,"[3]; first compound 0.5 µg/mL, partner 0.0155 µg/mL, one replicate",≥ 1
same,fitness,"[3]; first compound 0.5 µg/mL, partner 0.031 µg/mL, one replicate",0.973
same,fitness,"[3]; first compound 0.5 µg/mL, partner 0.075 µg/mL, one replicate",0.459
same,fitness,"[3]; first compound 0.5 µg/mL, partner 0.15 µg/mL, one replicate",0.0287
same,fitness,"[3]; first compound 0.5 µg/mL, partner 0.3 µg/mL, one replicate",0.0208
N[C@@H]1CONC1=O [Cycloserine D] + CN[C@H](CC(C)C)C(=O)N[C@H]1C(=O)N[C@@H](CC(N)=O)C(=O)N[C@H]2C(=O)N[C@H]3C(=O)N[C@H](C(=O)N[C@H](C(=O)O)c4cc(O)cc(O)c4-c4cc3ccc4O)[C@H](O)c3ccc(c(Cl)c3)Oc3cc2cc(c3O[C@@H]2O[C@H](CO)[C@@H](O)[C@H](O)[C@H]2O[C@H]2C[C@](C)(N)[C@H](O)[C@H](C)O2)Oc2ccc(cc2Cl)[C@H]1O [Vancomycin],fitness,[1]; [22],≥ 1
same,fitness,[1]; [23],≥ 1
same,fitness,[1]; [24],≥ 1
same,fitness,[1]; [25],0.995
same,fitness,[1]; [26],≥ 1
same,fitness,[1]; [27],0.975
same,fitness,[1]; [28],0.983
same,fitness,[1]; [29],≥ 1
same,fitness,[1]; [30],0.967
same,fitness,[2]; [22],≥ 1
same,fitness,[2]; [23],≥ 1
same,fitness,[2]; [24],≥ 1
same,fitness,[2]; [25],0.973
same,fitness,[2]; [26],≥ 1
same,fitness,[2]; [27],≥ 1
same,fitness,[2]; [28],≥ 1
same,fitness,[2]; [29],0.957
same,fitness,[2]; [30],≥ 1

# From the supplement of paper PMC10627819
